Assay results as given in patent US20220153751A1, “BIFUNCTIONAL COMPOUNDS” (BioTheryX, Inc., priority 2018, published 2022).

How the values were obtained:
Format in all cases: cell-based
IKAROS = target: T1, IKAROS (Homo sapiens, UniProt Q13422+Q96SW2); experiment: IKAROS degradation assay (Western blot, MV-4-11 cells); conditions: MV4-11, 6-8 h
T1 construct: endogenous in cells; host or cells: MV-4-11
Protocol: (§1) MV-4-11 cells were grown in RPMI 1640 media supplemented with 10% fetal bovine serum, streptomycin and penicillin.
(§2) Cells were cultured at approximately 10^6 cells per mL and incubated in DMSO or the indicated compound for 6-8 h. Whole cell extracts were prepared using RIPA buffer according to manufacturer's protocol (Pierce). Briefly, 3×10^6 cells were washed once in PBS, the cell pellets were resuspended in RIPA buffer and allowed to incubate for 15 minutes on ice. Cells debris was removed by centrifugation and the cleared whole cell lysates were transferred to new tubes for further analysis.
(§3) For Western blot analysis, whole cell protein extracts were separated on 4-12% SDS-polyacrylamide gels, transferred to nitrocellulose and probed with the indicated primary antibodies. Membranes were subsequently washed and probed with the appropriate IRDye secondary antibodies (LI-COR). The signal was detected using the Odyssey Imaging System (LI-COR).
(§4) The following antibodies were used in these studies: Anti-eRF3/GSPT1: Abcam, ab126090 (Cambridge, Mass.); Anti-Ikaros: Abcam, ab191394 (Cambridge, Mass.); Anti-CK1α: Abcam, ab108296 (Cambridge, Mass.); Anti-CDK9: Santa Cruz Biotechnology, sc13130 (Dallas, Tex.); Anti-CDK16: Millipore Sigma, HPA001366 (St. Louis, Mo.); 3-actin (8H10comD10) mouse monoclonal antibody: Cell Signaling Technology, #3700 (Danvers, Mass.); IRDye 680RD Goat anti-rabbit antibody: LI-COR, 926-68071 (Lincoln, Nebr.); IRDye 800CW Goat anti-mouse antibody: LI-COR, 926-32210 (Lincoln, Nebr.).
(§5) CDK9 activities are shown in Table 4 at two different concentrations. CDK16 activities are shown in Table 5 at two different concentrations. In each of Tables 1-5, the % degradation values are reported as “A”, “B”, “C”, or “D”. “A” represents a % degradation value of less than 25% (value <25%). “B” represents a % degradation value of equal to or more than 25% and less than 50% (25%≤value<50%). “C” represents a % degradation value of equal to or more than 50% and less than 75% (50%≤value<75%). “D” represents a % degradation value of equal to or more than 75% (value ≥75%).

CK1α = target: T2, CK1α (Homo sapiens, UniProt P48729+Q96SW2); experiment: CK1α degradation assay (Western blot, MV-4-11 cells); conditions: MV4-11, 6-8 h
T2 construct: Whole cell extracts were prepared using RIPA buffer; endogenous in cells; host or cells: MV-4-11
T2 sequence (P48729 whole entry): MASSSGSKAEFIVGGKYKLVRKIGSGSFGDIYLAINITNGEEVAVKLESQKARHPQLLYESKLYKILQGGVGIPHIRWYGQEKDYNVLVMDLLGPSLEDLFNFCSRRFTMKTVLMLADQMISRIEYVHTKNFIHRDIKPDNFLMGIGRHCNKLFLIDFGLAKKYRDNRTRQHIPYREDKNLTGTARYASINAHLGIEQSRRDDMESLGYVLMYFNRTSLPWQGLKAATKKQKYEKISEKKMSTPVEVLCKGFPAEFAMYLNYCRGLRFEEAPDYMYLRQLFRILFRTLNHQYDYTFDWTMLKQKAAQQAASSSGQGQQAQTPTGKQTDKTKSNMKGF
T2 sequence (Q96SW2 whole entry): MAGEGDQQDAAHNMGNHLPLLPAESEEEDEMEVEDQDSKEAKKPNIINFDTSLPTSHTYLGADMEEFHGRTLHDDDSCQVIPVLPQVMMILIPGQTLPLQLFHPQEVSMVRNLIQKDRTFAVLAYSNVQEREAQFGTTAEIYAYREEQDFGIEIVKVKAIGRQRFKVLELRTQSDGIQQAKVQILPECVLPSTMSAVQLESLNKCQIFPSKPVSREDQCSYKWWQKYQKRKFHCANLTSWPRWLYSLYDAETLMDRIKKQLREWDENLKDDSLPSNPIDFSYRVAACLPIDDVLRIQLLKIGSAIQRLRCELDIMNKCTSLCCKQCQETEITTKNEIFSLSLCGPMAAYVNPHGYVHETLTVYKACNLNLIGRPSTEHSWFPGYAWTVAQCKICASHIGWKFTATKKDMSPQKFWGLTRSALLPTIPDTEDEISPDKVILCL
T2 sequence (Q16531 whole entry partner): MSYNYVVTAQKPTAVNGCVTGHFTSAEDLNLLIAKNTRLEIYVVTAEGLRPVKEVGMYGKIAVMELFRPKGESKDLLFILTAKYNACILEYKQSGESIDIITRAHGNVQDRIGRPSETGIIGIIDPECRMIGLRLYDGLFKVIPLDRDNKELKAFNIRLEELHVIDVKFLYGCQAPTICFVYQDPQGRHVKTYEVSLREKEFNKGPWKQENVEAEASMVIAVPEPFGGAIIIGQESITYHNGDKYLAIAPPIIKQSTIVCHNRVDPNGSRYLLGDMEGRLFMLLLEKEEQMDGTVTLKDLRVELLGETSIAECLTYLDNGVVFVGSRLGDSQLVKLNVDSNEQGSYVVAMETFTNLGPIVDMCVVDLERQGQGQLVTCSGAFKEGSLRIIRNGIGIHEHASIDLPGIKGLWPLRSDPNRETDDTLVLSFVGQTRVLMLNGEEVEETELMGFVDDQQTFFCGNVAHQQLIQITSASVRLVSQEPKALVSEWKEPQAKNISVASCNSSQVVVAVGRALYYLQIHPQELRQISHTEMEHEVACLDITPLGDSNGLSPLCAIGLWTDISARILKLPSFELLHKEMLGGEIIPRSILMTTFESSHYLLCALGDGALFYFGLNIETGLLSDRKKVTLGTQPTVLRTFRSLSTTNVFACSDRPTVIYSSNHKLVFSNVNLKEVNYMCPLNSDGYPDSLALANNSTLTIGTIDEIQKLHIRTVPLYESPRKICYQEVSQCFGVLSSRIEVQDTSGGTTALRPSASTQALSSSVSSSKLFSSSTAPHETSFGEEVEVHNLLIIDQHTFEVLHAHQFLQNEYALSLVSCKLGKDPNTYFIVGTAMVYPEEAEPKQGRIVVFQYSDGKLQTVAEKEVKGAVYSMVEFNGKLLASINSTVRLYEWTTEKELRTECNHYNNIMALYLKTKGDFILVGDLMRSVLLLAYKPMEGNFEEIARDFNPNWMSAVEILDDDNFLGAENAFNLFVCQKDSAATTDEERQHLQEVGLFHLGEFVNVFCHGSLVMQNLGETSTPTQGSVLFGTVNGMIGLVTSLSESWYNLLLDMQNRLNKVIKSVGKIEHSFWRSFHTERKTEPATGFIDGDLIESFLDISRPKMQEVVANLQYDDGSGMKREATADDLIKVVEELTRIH
Protocol: as §1, §2, §3, §4, §5

MOLM-13 cells = experiment: MOLM-13 cell viability assay (CellTiter-Glo); conditions: Homo sapiens, MOLM-13, 72 h, 3 days, read-out: MOLM-13 Cell Viability % DMSO at 1 μM
Procedure, shortened: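 MOLM-13 cells at 2500 cells/well were exposed to compound for 3 days at 37 °C. Viability was read by CellTiter-Glo luminescence and expressed as % of DMSO control, binned A (<50%), B (50–<70%), C (70–<90%) or D (≥90%).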

IL-1β = IL-1β inhibition assay, LPS-induced PBMCs / CD14+ monocytes (Meso Scale); conditions: 1 h pretreatment, 100 ng/mL LPS 18-24 h
Protocol: (§6) Either frozen primary blood mononuclear cells (PBMCs) or frozen CD14+ mobilized peripheral blood monocytes were purchased from AllCells (PB003F, Normal Peripheral Blood MNC (Alameda, Calif.)). Cells were quick thawed, washed 1-time with RPMI-1640 (10% FBS/1% Pen-Strep) and plated in 96 well plates at 200,000 cells per well. Cells were pretreated with DMSO only or with the indicated compound for 1 h and then induced with 100 ng/mL lipopolysaccharide (LPS) for 18-24 h. The supernatant was analyzed for IL-1β, IL-6, and TNFα, using Meso Scale assay according to manufacturer's protocol. The negative control wells were treated with DMSO.
(§7) In Table 6, the % inhibition values are reported as “A”, “B”, “C”, or “D”. “A” represents a % inhibition value of less than 50% (value <50%). “B” represents a % inhibition value of equal to or more than 50% and less than 70% (50%≤value<70%). “C” represents a % inhibition value of equal to or more than 70% and less than 90% (70%≤value<90%). “D” represents a % inhibition value of equal or more than 90% (value ≥90%). In Table 7, the fold-change values are reported as “A”, “B”, “C”, or “D”. “A” represents a fold-change value of equal to or less than 0.1 (value ≤0.1). “B” represents a fold-change value of more than 0.1 and equal to or less than 0.5 (0.1<value≤0.5). “C” represents a fold-change value of more than 0.5 and equal to or less than 1 (0.5<value≤1). “D” represents a fold-change value of more than 1 (value >1).

IL-6 = IL-6 inhibition assay, LPS-induced PBMCs / CD14+ monocytes (Meso Scale); conditions: 1 h pretreatment, 100 ng/mL LPS 18-24 h
Protocol: as §6, §7

TNF-α = TNF-α inhibition assay, LPS-induced PBMCs / CD14+ monocytes (Meso Scale); conditions: 1 h pretreatment, 100 ng/mL LPS 18-24 h
Protocol: as §6, §7

GSPT1 = target: T3, GSPT1 (Homo sapiens, UniProt P15170+Q96SW2); experiment: GSPT1 degradation assay (Western blot, MV-4-11 cells); conditions: MV4-11, 6-8 h
T3 construct: Whole cell extracts were prepared using RIPA buffer; endogenous in cells; host or cells: MV-4-11
T3 sequence (P15170 whole entry): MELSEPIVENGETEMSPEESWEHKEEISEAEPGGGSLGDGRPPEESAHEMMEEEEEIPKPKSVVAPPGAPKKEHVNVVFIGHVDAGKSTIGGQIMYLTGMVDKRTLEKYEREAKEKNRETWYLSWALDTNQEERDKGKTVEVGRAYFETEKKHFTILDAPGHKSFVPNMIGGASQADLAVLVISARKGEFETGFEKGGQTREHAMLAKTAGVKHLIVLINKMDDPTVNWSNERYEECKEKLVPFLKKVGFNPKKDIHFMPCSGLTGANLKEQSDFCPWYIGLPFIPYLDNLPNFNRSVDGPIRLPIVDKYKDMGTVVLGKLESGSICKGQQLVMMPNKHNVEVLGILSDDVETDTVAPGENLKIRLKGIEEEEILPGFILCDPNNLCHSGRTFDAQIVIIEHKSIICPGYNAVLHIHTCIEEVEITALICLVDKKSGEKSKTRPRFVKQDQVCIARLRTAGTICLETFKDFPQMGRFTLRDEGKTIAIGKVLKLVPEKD
T3 sequence (Q96SW2 whole entry): as the sequence (Q96SW2 whole entry) above
T3 sequence (Q16531 whole entry partner): as the sequence (Q16531 whole entry partner) above
Protocol: as §1, §2, §3, §4, §5

CDK9 = target: T4, CDK9 (Homo sapiens, UniProt P50750); experiment: CDK9 degradation assay (Western blot, MV-4-11 cells); conditions: 6-8 h
T4 construct: Whole cell extracts were prepared using RIPA buffer; endogenous in cells; host or cells: MV-4-11
T4 sequence (P50750 whole entry): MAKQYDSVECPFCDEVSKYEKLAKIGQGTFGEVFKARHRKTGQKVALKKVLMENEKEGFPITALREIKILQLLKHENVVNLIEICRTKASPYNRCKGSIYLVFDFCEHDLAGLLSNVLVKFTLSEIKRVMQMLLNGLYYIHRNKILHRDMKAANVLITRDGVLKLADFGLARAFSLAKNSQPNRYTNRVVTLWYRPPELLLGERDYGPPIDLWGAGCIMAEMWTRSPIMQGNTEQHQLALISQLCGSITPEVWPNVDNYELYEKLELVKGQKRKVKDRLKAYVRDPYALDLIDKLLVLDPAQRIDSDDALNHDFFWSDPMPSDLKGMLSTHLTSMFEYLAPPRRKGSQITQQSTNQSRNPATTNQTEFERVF
Procedure, shortened: (§8)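 MV-4-11 cells (~10^6 cells/mL, RPMI 1640 with 10% FBS) were treated with compound or DMSO for 6-8 h. RIPA whole-cell lysates were run on SDS-PAGE, immunoblotted and detected with IRDye secondaries. % degradation is binned (<25%, 25–50%, 50–75%, ≥75%); CDK9 and CDK16 were tested at two concentrations.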

CDK16 = target: T5, CDK16 (Homo sapiens, UniProt Q00536); experiment: CDK16 degradation assay (Western blot, MV-4-11 cells); conditions: 6-8 h
T5 construct: Whole cell extracts were prepared using RIPA buffer; endogenous in cells; host or cells: MV-4-11
T5 sequence (Q00536 whole entry): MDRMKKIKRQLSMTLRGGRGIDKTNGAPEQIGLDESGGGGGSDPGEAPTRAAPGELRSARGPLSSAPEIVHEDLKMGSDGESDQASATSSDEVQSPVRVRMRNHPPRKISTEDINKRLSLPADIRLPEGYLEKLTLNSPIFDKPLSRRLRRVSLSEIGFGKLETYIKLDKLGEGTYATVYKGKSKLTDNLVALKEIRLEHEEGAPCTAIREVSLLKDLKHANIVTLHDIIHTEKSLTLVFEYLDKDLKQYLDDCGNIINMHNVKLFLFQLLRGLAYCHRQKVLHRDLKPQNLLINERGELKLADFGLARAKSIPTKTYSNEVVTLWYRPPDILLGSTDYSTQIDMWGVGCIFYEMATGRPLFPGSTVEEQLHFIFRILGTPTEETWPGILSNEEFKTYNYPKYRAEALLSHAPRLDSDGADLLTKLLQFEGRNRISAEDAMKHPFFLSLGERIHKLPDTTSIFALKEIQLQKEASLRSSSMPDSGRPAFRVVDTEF
Procedure, shortened: as §8

T1 sequence (Q13422 whole entry): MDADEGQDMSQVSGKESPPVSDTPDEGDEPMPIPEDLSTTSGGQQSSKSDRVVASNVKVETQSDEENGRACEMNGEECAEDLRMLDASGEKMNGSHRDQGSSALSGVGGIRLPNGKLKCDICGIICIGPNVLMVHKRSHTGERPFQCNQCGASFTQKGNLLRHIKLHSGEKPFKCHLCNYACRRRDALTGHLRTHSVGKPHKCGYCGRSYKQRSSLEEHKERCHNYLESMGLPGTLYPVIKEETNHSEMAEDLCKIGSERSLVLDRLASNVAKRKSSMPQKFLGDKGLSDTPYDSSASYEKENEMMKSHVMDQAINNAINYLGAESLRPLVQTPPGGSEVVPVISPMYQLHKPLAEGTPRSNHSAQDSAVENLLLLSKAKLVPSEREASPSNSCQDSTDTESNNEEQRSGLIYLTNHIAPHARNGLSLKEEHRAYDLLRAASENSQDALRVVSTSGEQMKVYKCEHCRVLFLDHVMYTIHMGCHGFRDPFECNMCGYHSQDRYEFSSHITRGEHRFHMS
T1 sequence (Q96SW2 whole entry): as the sequence (Q96SW2 whole entry) above
T1 sequence (Q16531 whole entry partner): as the sequence (Q16531 whole entry partner) above

| SMILES | Dmax at 1 µM (IKAROS) [%] | Dmax at 1 µM (CK1α) [%] | viability at 1 µM (MOLM-13 cells) [%] | inhibition at 1 µM (IL-1β) [%] | inhibition at 1 µM (IL-6) [%] | inhibition at 1 µM (TNF-α) [%] | Dmax at 1 µM (GSPT1) [%] | Dmax at 0.1 µM (CDK9; MV4-11, 0.1 μM) [%] | Dmax at 1 µM (CDK9; MV4-11, 1 μM) [%] | Dmax at 0.1 µM (CDK16; MV4-11, 0.1 μM) [%] | Dmax at 1 µM (CDK16; MV4-11, 1 μM) [%] |
| --- | --- | --- | --- | --- | --- | --- | --- | --- | --- | --- | --- |
| CC(C)(C)c1cnc(CSc2cnc(NC(=O)C3CCN(CC(=O)NCCCCNCc4ccc(OCc5scc6c5CN([C@H]5CCC(=O)NC5=O)C6=O)cc4)CC3)s2)o1 (stereo in doubt) [Compound 54, N-(5-(((5-(tert-butyl)oxazol-2-yl)methyl)thio)thiazol-2-yl)-1-(2-((4-((4-((5-(2,6-dioxopiperidin-3-yl)-4-oxo-5,6-dihydro-4H-thieno[3,4-c]pyrrol-1-yl)methoxy)benzyl)amino)butyl)amino)-2-oxoethyl)piperidine-4-carboxamide] | 50 to 75 | 50 to 75 | > 90 |  |  |  |  |  |  |  |  |
| CC(C)(C)c1cnc(CSc2cnc(NC(=O)C3CCN(CC(=O)NCCOCCNC(=O)NCc4ccc5c(c4)CN([C@H]4CCCC(=O)NC4=O)C5=O)CC3)s2)o1 [Compound 6, (S)—N-(5-(((5-(tert-butyl)oxazol-2-yl)methyl)thio)thiazol-2-yl)-1-(1-(2-(2,7-dioxoazepan-3-yl)-1-oxoisoindolin-5-yl)-3,11-dioxo-7-oxa-2,4,10-triazadodecan-12-yl)piperidine-4-carboxamide] | 25 to 50 | < 25 | < 50 | < 50 | 50 to 70 | < 50 |  |  |  |  |  |
| CC(C)(C)c1cnc(CSc2cnc(NC(=O)C3CCN(CC(=O)NCCOCCNC(=O)NCc4cccc5c4CN([C@H]4CCCC(=O)NC4=O)C5=O)CC3)s2)o1 [Compound 7, (S)—N-(5-(((5-(tert-butyl)oxazol-2-yl)methyl)thio)thiazol-2-yl)-1-(1-(2-(2,7-dioxoazepan-3-yl)-1-oxoisoindolin-4-yl)-3,11-dioxo-7-oxa-2,4,10-triazadodecan-12-yl)piperidine-4-carboxamide] | < 25 | < 25 | < 50 | < 50 | < 50 | < 50 |  |  |  |  |  |
| Cn1ncc(-c2nc(N[C@H]3CC[C@H](NC(=O)CCCCCCNCC(=O)NCc4ccc(COc5cccc6c5CN(C5CCC(=O)NC5=O)C6=O)cc4)CC3)ncc2Cl)c1CC1CC1 (some centres unmarked) [Compound 8, N-((1r,4r)-4-((5-chloro-4-(5-(cyclopropylmethyl)-1-methyl-1H-pyrazol-4-yl)pyrimidin-2-yl)amino)cyclohexyl)-7-((2-((4-(((2-(2,6-dioxopiperidin-3-yl)-1-oxoisoindolin-4-yl)oxy)methyl)benzyl)amino)-2-oxoethyl)amino)heptanamide] | 50 to 75 |  | 70 to 90 | < 50 | < 50 | < 50 | < 25 |  |  |  |  |
| CC(C)(C)c1cnc(CSc2cnc(NC(=O)C3CCN(CC(=O)NCCCCCNC(=O)NCc4scc5c4CN(C4CCC(=O)NC4=O)C5=O)CC3)s2)o1 (centres unmarked) [Compound 11, N-(5-(((5-(tert-butyl)oxazol-2-yl)methyl)thio)thiazol-2-yl)-1-(2-((5-(3-((5-(2,6-dioxopiperidin-3-yl)-4-oxo-5,6-dihydro-4H-thieno[3,4-c]pyrrol-1-yl)methyl)ureido)pentyl)amino)-2-oxoethyl)piperidine-4-carboxamide] |  | 25 to 50 | > 90 |  |  |  | 25 to 50 |  |  |  |  |
| Cn1ncc(-c2nc(N[C@H]3CC[C@H](NCCCCCCCCNC(=O)NCc4cc5c(s4)C(=O)N(C4CCC(=O)NC4=O)C5)CC3)ncc2Cl)c1CC1CC1 (some centres unmarked) [Compound 22, 1-(8-(((1r,4r)-4-((5-chloro-4-(5-(cyclopropylmethyl)-1-methyl-1H-pyrazol-4-yl)pyrimidin-2-yl)amino)cyclohexyl)amino)octyl)-3-((5-(2,6-dioxopiperidin-3-yl)-6-oxo-5,6-dihydro-4H-thieno[2,3-c]pyrrol-2-yl)methyl)urea] |  | < 25 | > 90 |  |  |  |  | 50 to 75 | ≥ 75 | < 25 | 50 to 75 |
| Cn1ncc(-c2nc(N[C@H]3CC[C@H](NCC(=O)NCCNC(=O)NCc4cc5c(s4)C(=O)N(C4CCC(=O)NC4=O)C5)CC3)ncc2Cl)c1CC1CC1 (some centres unmarked) [Compound 45, 2-(((1r,4r)-4-((5-chloro-4-(5-(cyclopropylmethyl)-1-methyl-1H-pyrazol-4-yl)pyrimidin-2-yl)amino)cyclohexyl)amino)-N-(2-(3-((5-(2,6-dioxopiperidin-3-yl)-6-oxo-5,6-dihydro-4H-thieno[2,3-c]pyrrol-2-yl)methyl)ureido)ethyl)acetamide] | 25 to 50 | < 25 | > 90 |  |  |  | 25 to 50 |  |  |  |  |
| Cn1ncc(-c2nc(N[C@H]3CC[C@H](NCC(=O)NCCOCCOCCOCCNc4cccc5c4C(=O)N(C4CCC(=O)NC4=O)C5=O)CC3)ncc2F)c1CC1CC1 (some centres unmarked) [Compound 50, 2-(((1r,4r)-4-((4-(5-(cyclopropylmethyl)-1-methyl-1H-pyrazol-4-yl)-5-fluoropyrimidin-2-yl)amino)cyclohexyl)amino)-N-(2-(2-(2-(2-((2-(2,6-dioxopiperidin-3-yl)-1,3-dioxoisoindolin-4-yl)amino)ethoxy)ethoxy)ethoxy)ethyl)acetamido] | ≥ 75 | 25 to 50 | > 90 |  |  |  | 50 to 75 |  |  |  |  |
| Cn1ncc(-c2nc(N[C@H]3CC[C@H](NCCOCCOCCOCCNCc4ccc(OCc5scc6c5CN([C@H]5CCC(=O)NC5=O)C6=O)cc4)CC3)ncc2Cl)c1CC1CC1 [Compound 69, (S)-3-(1-((4-(13-(((1r,4r)-4-((5-chloro-4-(5-(cyclopropylmethyl)-1-methyl-1H-pyrazol-4-yl)pyrimidin-2-yl)amino)cyclohexyl)amino)-5,8,11-trioxa-2-azatridecyl)phenoxy)methyl)-4-oxo-4H-thieno[3,4-c]pyrrol-5(6H)-yl)piperidine-2,6-dione] | ≥ 75 | 50 to 75 | < 50 | 70 to 90 | < 50 | 70 to 90 |  |  |  |  |  |
